Legend:
mouse spinal cord = settings: at doses in which neuromuscular junction transmission was unaltered; cited from earlier work
cerebellar cyclic GMP = settings: in vivo; cited from earlier work
A1 site = settings: cited from earlier work
[1] = in vivo; rats (printed "rates"); cited from earlier work
benzodiazepine receptors = settings: cited from earlier work
A2 site = settings: cited from earlier work
adenosine deaminase = settings: cited from earlier work
mice = settings: oral or intraperitoneal; cited from earlier work
[2] = tested on: adenosine uptake system (nucleoside transporter); settings: cited from earlier work
A1 receptor = target: T1, A1 receptor (Rattus norvegicus, UniProt P25099); test: IC50 at the A1 receptor (^3 H-PIA); type: binding; settings: for IC50: ^3 H-PIA
T1 sequence (P25099 1-326): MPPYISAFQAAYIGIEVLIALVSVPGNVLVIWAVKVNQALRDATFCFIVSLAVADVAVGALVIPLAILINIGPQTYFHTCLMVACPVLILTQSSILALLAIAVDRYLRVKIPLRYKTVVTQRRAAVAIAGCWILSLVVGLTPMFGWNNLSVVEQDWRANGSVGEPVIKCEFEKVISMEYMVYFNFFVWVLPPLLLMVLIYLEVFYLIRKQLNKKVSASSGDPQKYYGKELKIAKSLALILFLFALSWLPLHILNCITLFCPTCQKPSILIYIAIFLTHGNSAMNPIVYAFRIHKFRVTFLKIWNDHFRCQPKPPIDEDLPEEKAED

A2 receptor = A2 receptor (Rattus norvegicus, UniProt P30543); test: IC50 at the A2 receptor (^3 H-CGS21680); type: binding
A1 surface receptors = settings: both sites, in words; cited from earlier work
rats = settings: NECA vs R-PIA; cited from earlier work
A2 surface receptors = settings: cited from earlier work; for agonism at the A2 site: in words
[3] = tested on: noradrenaline-contracted guinea pig aorta; settings: by interactions with A2 receptors; cited from earlier work
animals = settings: cited from earlier work
[4] = tested on: coronary vascular smooth muscle; settings: cited from earlier work
[5] = in vivo; cited from earlier work
[6] = because of antagonism of the effects of extracellular adenosine; cited from earlier work

Sequence of A2 receptor (P30543 whole entry): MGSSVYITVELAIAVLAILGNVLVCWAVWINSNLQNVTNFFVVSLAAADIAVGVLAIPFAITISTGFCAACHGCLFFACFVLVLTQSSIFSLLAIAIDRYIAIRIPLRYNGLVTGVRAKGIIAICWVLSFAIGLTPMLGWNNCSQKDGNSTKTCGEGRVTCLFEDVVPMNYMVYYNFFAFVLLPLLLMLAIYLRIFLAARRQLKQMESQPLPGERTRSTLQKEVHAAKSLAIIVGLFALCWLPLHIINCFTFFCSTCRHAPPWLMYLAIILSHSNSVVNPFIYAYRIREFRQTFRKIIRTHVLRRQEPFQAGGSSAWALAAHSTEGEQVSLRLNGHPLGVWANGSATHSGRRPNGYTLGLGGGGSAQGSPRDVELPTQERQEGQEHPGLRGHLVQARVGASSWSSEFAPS

Cn1c(N)c2ncn([C@@H]3O[C@H](CO)[C@@H](O)[C@H]3O)c2nc1=O [1-methylisoguanosine]
polysynaptic responses in the mouse spinal cord (mouse spinal cord): blocked polysynaptic responses | cerebellar levels of cyclic GMP (cerebellar cyclic GMP): decreases cerebellar levels of cyclic GMP | interaction with extracellular adenosine receptors, A1 site (A1 site): can interact with extracellular adenosine receptors | effect on blood pressure and heart rate [1]: reduced blood pressure and heart rate | Ki (benzodiazepine receptors; benzodiazepine receptors, read-out: Ki vs ^3 H-diazepam binding): ~17000 nM | potency at benzodiazepine receptors relative to inosine and hypoxanthine (benzodiazepine receptors; comparison in words): several hundred fold more potent than inosine and hypoxanthine | interaction with extracellular adenosine receptors, A2 site (A2 site): can interact with extracellular adenosine receptors | degradation by adenosine deaminase (adenosine deaminase): resistant to degradation by adenosine deaminase | muscle relaxation and hypothermia (mice): potent muscle relaxation and hypothermine | substrate for, or inhibitor of, the adenosine uptake system [2]: poor substrate for, or inhibitor of, the adenosine uptake system

CCCCSc1cc(Nc2ccccc2)nc(SC(C)C(N)=O)n1 (centres unmarked) [Compound 1, (2-n-butylthio)-4-(N-phenyl)-6-propionamidyl thiopyrimidine]
affinity for the A1 receptor (A1 receptor; in words): moderate affinity

CCC(Sc1nc(SC(CC)C(N)=O)c2cnn(-c3ccccc3)c2n1)C(N)=O (stereo not drawn) [Compound 4, 4,6-bis-α-carbamoylpropylthio-1-phenylpyrazolo[3,4-d]pyrimidine]
IC50 (A1 receptor): 108 nM | potency of butanamide side chain versus propionamide moiety in FIG. 3 (A1 receptor; comparison in words): increased potency over the proprionamide moiety

CCC(Sc1nc2c(cnn2-c2ccccc2)c(=S)[nH]1)C(N)=O (stereo not drawn) [Compound 5, 6-α-carbamoylpropylthio-4-mercapto-1-phenylpyrazolo[3,4-d]pyrimidine]
IC50 (A1 receptor): 492 nM

CCNC(=O)C(C)Sc1nc(SC(C)C(=O)NCC)c2cnn(-c3ccccc3)c2n1 (stereo not drawn) [Compound 6, 4,6-Bis-α-N-ethylcarbamoylethylthio-1-phenylpyrazolo[3,4-d]pyrimidine]
IC50 (A2 receptor): 570 nM | IC50 (A1 receptor): 580 nM

CCNC(=O)C(C)Sc1nc(S)c2cnn(-c3ccccc3)c2n1 (stereo not drawn) [Compound 7, 6-α-N-Ethylcarbamoylethylthio-4-mercapto-1-phenylpyrazolo[3,4-d]pyrimidine]
IC50 (A2 receptor): 540 nM | IC50 (A1 receptor): 490 nM

CCNC(=O)C(C)Sc1nc(N)c2cnn(-c3ccccc3)c2n1 (centres unmarked) [Compound 8]
IC50 (A1 receptor): 17 nM

CCNC(=O)[C@H]1O[C@@H](n2cnc3c(N)ncnc32)[C@H](O)[C@@H]1O [NECA, 5'-N-ethyl carboxamidoadenosine]
agonism at the A1 site (A1 surface receptors): non-selective and are good agonists at both sites | anticonvulsant activity in reductions of amygdaloid-kindled seizures (rats): slightly more anticonvulsant activity than R-PIA | agonist potency at A2 surface receptors (A2 surface receptors; adenylate cyclase systems, NECA vs R-PIA): more potent agonist at A2 surface receptors than is R-N^6 -phenylisopropyl adenosine (R-PIA) | agonism at the A2 site (A2 surface receptors): non-selective and are good agonists at both sites

C[C@H](Cc1ccccc1)Nc1ncnc2c1ncn2[C@@H]1O[C@H](CO)[C@@H](O)[C@H]1O [PIA]
agonism at the A2 site (A2 surface receptors): reduced agonistic activity

Nc1ncnc2c1ncn2[C@@H]1O[C@H](CO)[C@@H](O)[C@H]1O [adenosine]
agonism at the A1 site (A1 surface receptors): non-selective and are good agonists at both sites | relaxation of noradrenaline-contracted guinea pig aorta [3]: relaxed | effects when given to animals (animals; intraperitoneal, alone): minimal or no effects | effects in the presence of an adenosine uptake inhibitor and/or adenosine deaminase inhibitor (animals; with adenosine uptake inhibitor and/or adenosine deaminase inhibitor): can cause muscle relaxation and hypothermia | relaxation of coronary vascular smooth muscle [4]: causes relaxation | activity of adenosine in words [5]: profound hypotensive, antispasmodic, sedative and vasodilatory activity | agonism at the A2 site (A2 surface receptors): non-selective and are good agonists at both sites

Cn1c(=O)c2c(ncn2C)n(C)c1=O [caffeine]
central stimulant action [6]: central stimulant action

CN1C(=O)CN=C(c2ccccc2)c2cc(Cl)ccc21 [diazepam]
cerebellar levels of cyclic GMP (cerebellar cyclic GMP): decreases cerebellar levels of cyclic GMP | Kd (benzodiazepine receptors; radioligand, read-out: Kd of ^3 H-diazepam binding): 11 nM

Cn1c(=O)c2[nH]cnc2n(C)c1=O [theophylline]
central stimulant action [6]: central stimulant action

Reference: US5227485A, “Pyrazolo[3,4-d]pyrimidines with adenosine-like binding affinities” (Griffith University, priority 1990, dated 1993)
